# Measurements from the supplement of paper PMC10307832.
# Key:
# Test in all cases: relative viability (nuclei count vs DMSO), 5 days (fraction); higher = more cells survive
# Salubrinal + Olaparib = compound: O=C(/C=C/c1ccccc1)NC(NC(=S)Nc1cccc2cccnc12)C(Cl)(Cl)Cl [Salubrinal] + O=C(c1cc(Cc2n[nH]c(=O)c3ccccc23)ccc1F)N1CCN(C(=O)C2CC2)CC1 [Olaparib] (partner 8 µM)
# Outline: (§1)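 Nuclei were stained with Hoechst during a one-step fixation (final 0.05% Triton X-100, 1% formaldehyde, 1 ug/ml Hoechst) carried out 5 days after dosing, then counted on 4× images. The cells, lung cancer lines in 1536-well plates, had been dosed by pin tool the day after seeding with one drug alone or a fixed anchor-drug dose plus five library-drug doses (not always all listed) in √10 steps. Relative viability is the nuclei count in treated wells divided by that in vehicle wells, and each value is the median of duplicate plates.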
# Salubrinal + Palbociclib = compound: O=C(/C=C/c1ccccc1)NC(NC(=S)Nc1cccc2cccnc12)C(Cl)(Cl)Cl [Salubrinal] + CC(=O)c1c(C)c2cnc(Nc3ccc(N4CCNCC4)cn3)nc2n(C2CCCC2)c1=O [Palbociclib] (partner 0.5 µM)
# Outline: as §1
# Salubrinal + Pictilisib = compound: O=C(/C=C/c1ccccc1)NC(NC(=S)Nc1cccc2cccnc12)C(Cl)(Cl)Cl [Salubrinal] + CS(=O)(=O)N1CCN(Cc2cc3nc(-c4cccc5[nH]ncc45)nc(N4CCOCC4)c3s2)CC1 [Pictilisib] (partner 1 µM)
# Outline: as §1
# [1] = compound: Cc1ccc2nc(NCCN)c3ncc(C)n3c2c1 + CC(=O)c1c(C)c2cnc(Nc3ccc(N4CCNCC4)cn3)nc2n(C2CCCC2)c1=O [Palbociclib] (partner 0.5 µM)
# Outline: as §1
Cell Line,relative viability (Salubrinal + Olaparib; first compound 0.08 µM),relative viability (Salubrinal + Olaparib; first compound 0.253 µM),relative viability (Salubrinal + Olaparib; first compound 0.8 µM),relative viability (Salubrinal + Olaparib; first compound 2.53 µM),relative viability (Salubrinal + Olaparib; first compound 8 µM),relative viability (Salubrinal + Palbociclib; first compound 0.08 µM),relative viability (Salubrinal + Palbociclib; first compound 0.253 µM),relative viability (Salubrinal + Palbociclib; first compound 0.8 µM),relative viability (Salubrinal + Palbociclib; first compound 2.53 µM),relative viability (Salubrinal + Palbociclib; first compound 8 µM),relative viability (Salubrinal + Pictilisib; first compound 0.08 µM),relative viability (Salubrinal + Pictilisib; first compound 0.253 µM),relative viability (Salubrinal + Pictilisib; first compound 0.8 µM),relative viability (Salubrinal + Pictilisib; first compound 2.53 µM),relative viability (Salubrinal + Pictilisib; first compound 8 µM),relative viability ([1]; first compound 0.04 µM),relative viability ([1]; first compound 0.1265 µM),relative viability ([1]; first compound 0.4 µM),relative viability ([1]; first compound 1.265 µM),relative viability ([1]; first compound 4 µM)
201T,0.866,0.61,0.861,0.809,0.824,0.355,0.332,0.413,0.351,0.374,0.591,0.636,0.778,0.706,0.678,0.396,0.367,0.33,0.363,0.323
A549,0.226,0.344,0.438,0.31,0.287,–,–,–,–,–,0.585,0.419,0.517,0.436,0.35,–,–,–,–,–
A-427,0.751,0.7,0.793,0.682,0.744,0.57,0.527,0.562,0.502,0.538,0.805,0.748,0.853,0.785,0.759,0.531,0.485,0.496,0.506,0.555
ABC-1,0.831,0.67,0.741,0.633,0.8,0.692,0.576,0.836,0.547,0.664,0.705,0.92,0.812,0.727,0.588,0.785,0.792,0.887,0.649,0.538
BEN,1.33,0.935,1.16,1.04,0.943,0.453,0.444,0.484,0.457,0.463,0.567,0.606,0.746,0.643,0.549,0.506,0.484,0.479,0.465,0.48
CAL-12T,0.7,0.711,0.751,0.725,0.648,0.459,0.42,0.676,0.436,0.328,0.392,0.488,0.438,0.734,0.528,0.499,0.47,0.39,0.376,0.48
COR-L23,0.392,0.323,0.355,0.315,0.325,0.356,0.31,0.312,0.331,0.208,0.946,0.666,0.899,0.676,0.432,0.383,0.301,0.323,0.318,0.323
COR-L 105,0.617,0.732,0.592,0.662,0.587,0.311,0.405,0.364,0.408,0.385,0.419,0.358,0.406,0.349,0.421,0.374,0.414,0.43,0.4,0.438
Calu-6,0.632,0.522,0.723,0.591,0.453,–,–,–,–,–,1.11,0.817,0.925,0.871,0.792,–,–,–,–,–
ChaGo-K-1,0.46,0.404,0.449,0.395,0.383,1.02,0.756,0.954,0.938,0.837,0.73,0.625,1.21,1.01,0.827,0.929,0.919,0.919,0.891,0.907
EBC-1,0.787,0.616,0.73,0.604,0.585,–,–,–,–,–,0.332,0.373,0.4,0.273,0.248,–,–,–,–,–
EKVX,0.986,0.816,0.884,0.852,0.815,0.408,0.457,0.791,0.412,0.37,0.508,0.494,0.525,0.461,0.482,0.441,0.358,0.36,0.351,0.295
EMC-BAC-2,0.496,0.513,0.525,0.466,0.525,0.493,0.493,0.541,0.525,0.524,0.607,0.454,0.574,0.583,0.565,0.55,0.536,0.509,0.521,0.486
EPLC-272H,0.913,–,0.977,0.596,0.452,0.314,0.295,0.293,0.288,0.312,0.293,0.282,0.355,0.33,0.24,0.337,0.348,0.315,0.257,0.249
H3255,0.618,0.62,0.595,0.526,0.569,0.315,0.344,0.319,0.299,0.332,0.561,0.535,0.576,0.456,0.487,0.329,0.298,0.312,0.327,0.317
HARA,0.834,1.17,0.907,0.682,0.634,0.294,0.281,0.252,0.269,0.236,0.524,0.328,0.558,0.328,0.375,0.2,0.236,0.237,0.222,0.268
HCC-15,0.766,0.711,0.784,0.702,0.68,0.832,0.589,0.844,0.777,0.703,0.77,0.643,0.837,0.728,0.759,0.789,0.773,0.616,0.708,0.485
HCC-44,1,0.968,1.03,0.957,1.03,1.03,0.941,0.971,0.998,1,0.592,0.591,0.767,0.649,0.493,0.934,0.94,0.914,0.894,0.99
HCC-78,1,0.964,1,0.788,0.9,0.462,0.403,0.488,0.464,0.539,0.195,0.0891,0.312,0.232,0.229,0.499,0.475,0.484,0.437,0.369

Cell Line,relative viability (Salubrinal + Olaparib; first compound 0.08 µM),relative viability (Salubrinal + Olaparib; first compound 0.253 µM),relative viability (Salubrinal + Olaparib; first compound 0.8 µM),relative viability (Salubrinal + Olaparib; first compound 2.53 µM),relative viability (Salubrinal + Olaparib; first compound 8 µM),relative viability (Salubrinal + Palbociclib; first compound 0.08 µM),relative viability (Salubrinal + Palbociclib; first compound 0.253 µM),relative viability (Salubrinal + Palbociclib; first compound 0.8 µM),relative viability (Salubrinal + Palbociclib; first compound 2.53 µM),relative viability (Salubrinal + Palbociclib; first compound 8 µM),relative viability (Salubrinal + Pictilisib; first compound 0.08 µM),relative viability (Salubrinal + Pictilisib; first compound 0.253 µM),relative viability (Salubrinal + Pictilisib; first compound 0.8 µM),relative viability (Salubrinal + Pictilisib; first compound 2.53 µM),relative viability (Salubrinal + Pictilisib; first compound 8 µM),relative viability ([1]; first compound 0.04 µM),relative viability ([1]; first compound 0.1265 µM),relative viability ([1]; first compound 0.4 µM),relative viability ([1]; first compound 1.265 µM),relative viability ([1]; first compound 4 µM)
HCC-366,0.459,–,0.401,0.341,0.357,0.464,–,0.44,0.385,0.315,0.132,0.143,0.121,0.151,0.179,0.409,0.392,0.343,0.382,0.352
HCC-827,0.684,0.646,0.647,0.629,0.664,0.49,0.441,0.514,0.475,0.48,0.959,1.02,1.06,0.994,0.898,0.437,0.517,0.473,0.501,0.495
HOP-62,0.318,1.34,0.943,0.456,0.386,0.359,0.399,0.53,0.457,0.481,0.509,0.468,0.681,0.505,0.691,0.424,0.436,0.475,0.469,0.464
IA-LM,0.842,0.83,0.935,0.704,0.72,–,–,–,–,–,0.353,0.279,0.357,0.219,0.188,–,–,–,–,–
LC-2-ad,0.677,0.708,0.729,0.728,0.709,0.499,0.403,0.586,0.478,0.403,0.457,0.448,0.519,0.385,0.323,0.469,0.524,0.482,0.51,0.452
LCLC-97TM1,0.289,0.345,0.376,0.412,0.383,0.236,0.224,0.221,0.227,0.265,0.261,0.162,0.2,–,0.181,0.236,0.217,0.247,0.218,0.245
LCLC-103H,0.866,0.572,0.853,0.769,0.76,0.469,0.491,0.469,0.453,0.467,0.591,0.599,0.743,0.562,0.535,0.463,0.462,0.428,0.497,0.488
LK-2,0.873,0.659,0.877,0.773,0.694,0.708,0.781,0.683,0.597,0.788,0.59,0.541,0.666,0.512,0.575,0.502,0.811,–,–,0.725
LOU-NH91,0.967,0.908,0.897,0.9,0.961,0.6,0.565,0.521,0.556,0.569,0.541,0.502,0.576,0.479,0.53,0.551,0.509,0.52,0.542,0.464
LU99A,0.286,0.29,0.265,0.24,0.222,0.419,0.425,0.458,0.388,0.447,0.29,0.35,0.356,0.318,0.362,0.468,0.447,0.434,0.456,0.41
LXF-289,1.27,0.918,1.25,1.14,1.07,0.678,0.478,0.633,0.578,0.578,0.871,0.728,0.829,0.778,0.731,0.605,0.648,0.604,0.638,0.556
NCI-H522,0.565,0.648,0.701,0.686,0.637,1.1,1.21,0.956,0.94,1.13,–,–,–,–,–,0.83,1.17,1.01,1.04,0.87
NCI-H596,0.768,0.525,0.597,0.668,0.581,–,–,–,–,–,0.421,0.347,0.437,0.456,0.401,–,–,–,–,–
NCI-H1299,0.98,0.947,0.993,0.951,0.936,–,–,–,–,–,0.911,0.704,0.874,0.698,0.66,–,–,–,–,–
NCI-H1563,–,–,–,–,–,–,–,–,–,–,0.665,0.586,0.639,0.623,0.591,–,–,–,–,–
NCI-H1648,0.751,1.03,0.476,1.02,0.594,0.255,0.258,0.252,0.22,0.236,–,–,–,–,–,0.272,0.27,0.237,0.25,0.282
NCI-H1703,0.414,0.721,0.416,0.486,0.385,–,–,–,–,–,0.216,0.246,0.238,0.259,0.264,–,–,–,–,–
NCI-H2342,0.456,0.45,0.455,0.432,0.497,0.465,0.516,0.552,0.49,0.531,–,–,–,–,–,0.626,0.552,0.479,0.532,0.531
SW 900,1.04,1.07,0.892,0.793,0.801,0.692,0.531,0.493,0.468,0.567,–,–,–,–,–,–,0.522,0.587,0.464,0.589
